Assay results from patent publication US9546138B2, “Pyridone derivatives and uses thereof in the treatment of tuberculosis” (priority 2012, dated 2017).
In brackets after ≈: the same amount, converted by molar mass. Where two headings read alike, the source gives them in different places.

Assays:
Assay in all cases: microbe, parasite or virus in culture
Assay type in all cases: cell-based
[1] = tested on: Mycobacterium tuberculosis H37Rv (ATCC #27294)
[2] = tested on: M. smeg WT (WT inhA); settings: Mycolicibacterium smegmatis, strain M. smeg WT, read-out: Compound MIC50
[3] = tested on: BCG WT (WT inhA); settings: Mycobacterium tuberculosis variant bovis BCG, read-out: Compound MIC50

| Structure (SMILES) | MIC50 ([1]; 120 h, read-out: MTB MIC50) | other results |
| --- | --- | --- |
| CC1(C)CCC(Cc2cc(OCOP(=O)(O)O)c(-c3ccccc3)c(=O)[nH]2)CC1 [PD21, ((6-((4,4-dimethylcyclohexyl)methyl)-2-oxo-3-phenyl-1,2-dihydropyridin-4-yl)oxy)methyl dihydrogen phosphate] | 3.99 µM | – |
| O=c1[nH]c(CC2CCC(F)(F)CC2)cc(O)c1-c1ccccc1 [PD9, 6-((4,4-difluorocyclohexyl)methyl)-4-hydroxy-3-phenylpyridin-2(1H)-one] | 1.32 µM (≈ 0.422 µg/mL) | – |
| O=c1[nH]c(CC2CCOCC2)cc(O)c1-c1ccccc1 [PD6, 4-hydroxy-3-phenyl-6-((tetrahydro-2H-pyran-4-yl)methyl)pyridin-2(1H)-one] | 10.1 µM (≈ 2.88 µg/mL) | – |
| CC(C)Cc1cc(O)c(-c2cccc(Cl)c2)c(=O)[nH]1 [PD14, 3-(3-chlorophenyl)-4-hydroxy-6-isobutylpyridin-2(1H)-one] | 2.67 µM (≈ 0.742 µg/mL) | – |
| CC(C)CCc1cc(O)c(-c2ccccc2)c(=O)[nH]1 [PD7, 4-hydroxy-6-isopentyl-3-phenylpyridin-2(1H)-one] | 1.51 µM (≈ 0.389 µg/mL) | – |
| CC(C)(C)Cc1cc(O)c(-c2ccccc2)c(=O)[nH]1 [PD8, 4-hydroxy-6-neopentyl-3-phenylpyridin-2(1H)-one] | 10 µM (≈ 2.58 µg/mL) | – |
| CC(C)Cc1cc(O)c(-c2cccc(F)c2)c(=O)[nH]1 [PD18, 3-(3-fluorophenyl)-4-hydroxy-6-isobutylpyridin-2(1H)-one] | 2.69 µM (≈ 0.703 µg/mL) | – |
| CCc1cc(C(N)=S)ccn1 [Ethionamide, reference compound] | – | MIC50 ([1]; read-out: Compound MIC50): 1.66 µM (≈ 0.276 µg/mL); MIC50 [2]: > 20 µM; MIC50 ([3]; BCG): 17 µM (≈ 2.83 µg/mL) |
| CC(C)Cc1cc(O)c(-c2ccc(F)cc2F)c(=O)[nH]1 [PD17, 3-(2,4-difluorophenyl)-4-hydroxy-6-isobutylpyridin-2(1H)-one] | 9.18 µM (≈ 2.56 µg/mL) | – |
| CC(C)Cc1cc(O)c(-c2ccccc2)c(=O)[nH]1 [PD12, 4-hydroxy-6-isobutyl-3-phenylpyridin-2(1H)-one] | 1.9 µM (≈ 0.462 µg/mL) | MIC50 ([1]; read-out: Compound MIC50): 1.54 µM (≈ 0.375 µg/mL); MIC50 [2]: 0.67 µM (≈ 0.163 µg/mL); MIC50 ([3]; strain BCG WT, WT inhA): 0.37 µM (≈ 0.09 µg/mL) |
| NNC(=O)c1ccncc1 [Isoniazid, isoniazid, reference compound] | – | MIC50 ([1]; read-out: Compound MIC50): 0.25 µM (≈ 0.0343 µg/mL); MIC50 [2]: > 20 µM; MIC50 ([3]; strain BCG WT, WT inhA): 0.3 µM (≈ 0.0411 µg/mL) |
| CC1(C)CCC(Cc2cc(OP(=O)(O)O)c(-c3ccccc3)c(=O)[nH]2)CC1 [PD22, 6-((4,4-dimethylcyclohexyl)methyl)-2-oxo-3-phenyl-1,2-dihydropyridin-4-yl dihydrogen phosphate] | 1.72 µM | – |
| O=c1[nH]c(CC2CCCCC2)cc(O)c1-c1ccccc1 [PD2, 6-(cyclohexylmethyl)-4-hydroxy-3-phenylpyridin-2(1H)-one] | 0.22 µM (≈ 0.0623 µg/mL) | MIC50 ([1]; read-out: Compound MIC50): 0.16 µM (≈ 0.0453 µg/mL) |
| CC(C)Cc1cc(O)c(-c2ccccc2)c(=O)n1C [PD19, 4-hydroxy-6-isobutyl-1-methyl-3-phenylpyridin-2(1H)-one] | 8.14 µM (≈ 2.09 µg/mL) | – |
| CC(C)Cc1cc(O)c(-c2ccc(F)cc2)c(=O)[nH]1 [PD15, 3-(4-fluorophenyl)-4-hydroxy-6-isobutylpyridin-2(1H)-one] | 6.75 µM (≈ 1.76 µg/mL) | – |
| CC1(C)CCC(Cc2cc(O)c(-c3ccccc3)c(=O)[nH]2)CC1 [PD10, 6-((4,4-dimethylcyclohexyl)methyl)-4-hydroxy-3-phenylpyridin-2(1H)-one] | 0.02 µM (≈ 0.00623 µg/mL) | MIC50 ([1]; read-out: Compound MIC50): 0.05 µM (≈ 0.0156 µg/mL); MIC50 [2]: 0.4 µM (≈ 0.125 µg/mL); MIC50 ([3]; strain BCG WT, WT inhA): 0.02 µM (≈ 0.00623 µg/mL) |
| O=c1[nH]c(Cc2ccncc2)cc(O)c1-c1ccccc1 [PD11, 4-hydroxy-3-phenyl-6-(pyridin-4-ylmethyl)pyridin-2(1H)-one] | 6.08 µM (≈ 1.69 µg/mL) | – |
| CC(C)Cc1[nH]c(=O)c(-c2ccccc2)c(O)c1C(N)=O [PD13, 4-hydroxy-2-isobutyl-6-oxo-5-phenyl-1,6-dihydropyridine-3-carboxamide] | 18.7 µM (≈ 5.35 µg/mL) | – |
| O=c1[nH]c(CC2CCC2)cc(O)c1-c1ccccc1 [PD5, 6-(cyclobutylmethyl)-4-hydroxy-3-phenylpyridin-2(1H)-one] | 1.19 µM (≈ 0.304 µg/mL) | – |
| O=c1[nH]c(Cc2ccccc2)cc(O)c1-c1ccccc1 [PD1, 6-benzyl-4-hydroxy-3-phenylpyridin-2(1H)-one] | 1.4 µM (≈ 0.388 µg/mL) | – |
| O=c1[nH]c(CC2CC2)cc(O)c1-c1ccccc1 [PD3, 6-(cyclopropylmethyl)-4-hydroxy-3-phenylpyridin-2(1H)-one] | 4.53 µM (≈ 1.09 µg/mL) | – |
| O=c1[nH]c(CC2CCCC2)cc(O)c1-c1ccccc1 [PD4, 6-(cyclopentylmethyl)-4-hydroxy-3-phenylpyridin-2(1H)-one] | 0.92 µM (≈ 0.248 µg/mL) | – |
